Tests used:
[1] = biological target: T1, GST-tagged TRPM6-(1730–end) (Homo sapiens, UniProt Q9BX84); experiment: Peptide pull-down, TRPM6-(1730–end); format: binding; conditions: HEK-293 lysate 1–5 mg, 3 μg biotinylated peptide, 10 min at 4°C, streptavidin beads; anti-GST immunoblot
T1 construct: E. coli-purified GST-tagged TRPM6-(1730–end); made in house; host or cells: E. coli BL21
T1 sequence (Q9BX84 1730-2022 limits assumed): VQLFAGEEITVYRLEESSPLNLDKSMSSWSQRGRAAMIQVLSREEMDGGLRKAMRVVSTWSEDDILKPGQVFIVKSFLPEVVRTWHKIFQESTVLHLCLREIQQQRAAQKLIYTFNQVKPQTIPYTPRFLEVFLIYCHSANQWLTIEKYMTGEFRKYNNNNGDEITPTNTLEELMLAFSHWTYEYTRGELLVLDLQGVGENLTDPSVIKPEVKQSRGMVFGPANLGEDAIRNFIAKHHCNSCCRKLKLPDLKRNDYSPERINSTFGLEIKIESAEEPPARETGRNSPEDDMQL
Experimental: (§1) The peptides biotin-C6-[…]-TIPFTPVQLFAGEEITV (wild-type) and biotin-C6-LKSPQE-[…] (mutant) were purchased from GL Biochem. For a peptide pull-down, 1–5 mg of lysate was incubated with 3 μg of the respective peptide for 10 min at 4°C under gentle agitation, followed by 5 min of incubation with 10–20 μl of streptavidin beads at 4°C. The immunoprecipitates were washed three times with lysis buffer containing 0.15 M NaCl and then twice with buffer A. Proteins were eluted by resuspending washed immunoprecipitates in 30 μl of SDS sample buffer.
(Figure 2A). We next utilized fluorescence polarization technology, a sensitive method to evaluate interactions between proteins and peptides. Using this methodology, we first evaluated how polarization of a fluorescently labelled peptide encompassing the dimerization motif was affected by titration of TRPM6-(1730–end) (which lacks the dimerization motif). […]
Figure 2 Identification of dimerization motif residues in TRPM6 (A) Structural model of TRPM7 α-kinase depicting the N-terminal non-catalytic α-helix of one monomer that interacts with the kinase segment of the other monomer. (B) Fluorescence polarization analysis of wild-type (WT) and mutant (Mut) dimerization motif peptides with E. coli-purified GST-tagged TRPM6-(1730–end). […] The samples were analysed by immunoblotting with anti-GST antibody (top panel). […]

[2] = system: GST-tagged TRPM6-(1730–end) Q1832K; experiment: Peptide pull-down, Q1832K mutant; format: binding, human; conditions: HEK-293 lysate, 3 μg peptide, 4°C, anti-GST immunoblot
Experimental: as §1, with “buffer. […]” for “buffer.”
(§2) Figure 3 Analysis of the dimerization pocket residues (A) Structural model of TRPM6 based on TRPM7 α-kinase depicting the binding of Leu^1718 and Leu^1721 to other residues in the α-kinase domain. […] The samples were analysed by immunoblotting with anti-GST antibody (top panel). […] (C) Fluorescence polarization analysis of the dimerization motif peptide with E. coli purified GST-tagged TRPM6-(1730–end) and indicated mutants. […] Proteins were separated by SDS/PAGE, stained with Coomassie Blue (top and middle panels) and MBP phosphorylation was detected by autoradiography (bottom panel). […] Proteins were separated by SDS/PAGE, stained with Coomassie Blue (top and middle gels) and MBP phosphorylation was detected by autoradiography (bottom gel). […]

[3] = system: GST-tagged TRPM6-(1730–end) L1743A; experiment: Peptide pull-down, L1743A mutant; format: binding, human; conditions: HEK-293 lysate, 3 μg peptide, 4°C, anti-GST immunoblot
Experimental: as §1, with “buffer. […]” for “buffer.”
as §2

[4] = system: GST-tagged TRPM6-(1730–end) L1840A; experiment: Peptide pull-down, L1840A mutant; format: binding, human; conditions: HEK-293 lysate, 3 μg peptide, 4°C, anti-GST immunoblot
Experimental: as §1, with “buffer. […]” for “buffer.”
as §2

## biotin-C6-LKSPQEPHHHYSAIERNNLMRLSQ-TIPFTPVQLFAGEEITV [biotinylated dimerization motif peptide, biotin-C6 wild-type dimerization motif peptide; conjugated to streptavidin–Sepharose]
[1]
  affinity purification of TRPM6-(1730–end) (pull-down): could efficiently purify TRPM6-(1730–end)
[2]
  binding to biotinylated dimerization motif peptide (pull-down): abolished binding to the peptide
[3]
  binding to biotinylated dimerization motif peptide (pull-down): abolished binding to the peptide
[4]
  binding to biotinylated dimerization motif peptide (pull-down): abolished binding to the peptide
